Test results published in patent US20240376073A1 (Hoffmann-La Roche Inc., priority 2021, published 2024).
Structures can show the parent of a compound that is named as a salt. Where two headings read alike, the source gives them in different places.

Test system: Acinetobacter baumannii ATCC17961
Assay: Antimicrobial susceptibility testing: 90% growth inhibitory concentration (IC90) determination
Format: cell-based
Conditions: Iso-Sensitest broth, growth by OD 600 nm over 16 h, 35±2° C.
Outline: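 Twofold serial dilutions (e.g. 50 to 0.097 μM final) in Iso-Sensitest broth, inoculated at ~5×10^(5) CFU/ml, incubated at 35±2° C. OD600 read every 20 min over 16 h; IC90 derived from growth inhibition during logarithmic growth.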

[1] = Acinetobacter baumannii ATCC17961, read-out: ATCC 17961 IC90
[2] = Acinetobacter baumannii, ATCC17961, 16 h, read-out: ATCC 17961 IC90, Acinetobacter baumannii ATCC17961

IC90 [1] | Structure (SMILES) | IC90 [2]
120 nM | COc1ccc(-c2cnc(C(=O)Nc3ccc(C(=O)N4CCN(C(=O)C[N+]5(C)CCOCC5)CC4)c(Cl)c3)n2C)c(F)c1F [Example C27, N-[3-chloro-4-[4-[2-(4-methyl-morpholin-4-ium-4-yl)acetyl]-piperazine-1-carbonyl]phenyl]-5-(2,3-difluoro-4-methoxy-phenyl)-1-methyl-imid-azole-2-carbox-amide; formate] | 
130 nM | COc1ccc(-c2cnc(C(=O)Nc3ccc(C(=O)N4CCN(C(=O)C[N+]5(C)CCCC5)CC4)c(Cl)c3)n2C)c(F)c1F [Example C28, N-[3-chloro-4-[4-[2-(1-methylpyr-rolidin-1-ium-1-yl)acetyl]piper-azine-1-carbonyl]-phenyl]-5-(2,3-difluoro-4-meth-oxy-phenyl)-1-methyl-imidazole-2-carboxamide; formate] | 
100 nM | COc1ccc(-c2cnc(C(=O)Nc3ccc(C(=O)N4CCN(C(=O)C[N+]5(C)CCC(O)C5)CC4)c(Cl)c3)n2C)c(F)c1F (stereo not drawn) [Example C29, N-[3-chloro-4-[4-[2-(3-hydroxy-1-methyl-pyrrolidin-1-ium-1-yl)acet-yl]piperazine-1-carbonyl]phenyl]-5-(2,3-difluoro-4-methoxy-phenyl)-1-methyl-imid-azole-2-carbox-amide; formate] | 
410 nM | Cn1c(-c2ccc(OC(F)F)c(F)c2F)cnc1C(=O)Nc1ccc(C(=O)N2CCN(C(=O)C3CC[N+](C)(CC(=O)O)CC3)CC2)c(Cl)c1 (stereo not drawn) [Example C31, 2-[4-[4-[2-chloro-4-[[5-[4-(difluorometh-oxy)-2,3-difluoro-phen-yl]-1-methyl-imidazole-2-carbonyl]amino]-benzoyl]piper-azine-1-carbon-yl]-1-methyl-piperidin-1-ium-1-yl]acetic acid; 2,2,2-trifluoro-acetate] | 
 | COc1ccc(-c2cnc(C(=O)Nc3ccc(C(=O)N4CCN(C(=O)C5CC[N+](CCCN)(CC(=O)O)CC5)CC4)c(Cl)c3)n2C)c(F)c1F (stereo not drawn) [Example C32, 2-[1-(3-aminopropyl)-4-[4-[2-chloro-4-[[5-(2,3-difluoro-4-methoxy-phenyl)-1-methyl-imidazole-2-carbonyl]amino]benzoyl]piperazine-1-carbonyl]piperidin-1-ium-1-yl]acetic acid; formate] | 810 nM
 | COc1ccc(-c2cnc(C(=O)Nc3ccc(C(=O)N4CCN(C(=O)C5CC[N+](CC(=O)O)(CC6CNC6)CC5)CC4)c(Cl)c3)n2C)c(F)c1F (stereo not drawn) [Example C33, 2-[1-(azetidin-3-ylmethyl)-4-[4-[2-chloro-4-[[5-(2,3-difluoro-4-methoxy-phenyl)-1-methyl-imidazole-2-carbonyl]amino]benzoyl]piperazine-1-carbonyl]piperidin-1-ium-1-yl]acetic acid; formate] | 490 nM
570 nM | COc1ccc(-c2cnc(C(=O)Nc3ccc(C(=O)N4CCN(C(=O)CCC[N+](CCCN)(CCCN)CC(=O)O)CC4)c(Cl)c3)n2C)c(F)c1F [Example C34, bis(3-aminopropyl)-(carboxymethyl)-[4-[4-[2-chloro-4-[[5-(2,3-difluoro-4-methoxy-phenyl)-1-methyl-imidazole-2-carbonyl]amino]benzoyl]piperazin-1-yl]-4-oxo-butyl]ammonium; formate] | 
 | COc1ccc(-c2cnc(C(=O)Nc3ccc(C(=O)N4CCN(C(=O)CCC[N+](C)(CCCN)CC(=O)O)CC4)c(Cl)c3)n2C)c(F)c1F (stereo not drawn) [Example C35, 3-aminopropyl-(carboxymethyl)-[4-[4-[2-chloro-4-[[5-(2,3-difluoro-4-methoxy-phenyl)-1-methyl-imidazole-2-carbonyl]amino]beuzoyl]piperazin-1-yl]-4-oxo-butyl]-methyl-ammonium formate] | 510 nM
 | COc1ccc(-c2cnc(C(=O)Nc3ccc(C(=O)N4CCN(C(=O)N5CC[N+](C)(CC(=O)O)CC5)CC4)c(Cl)c3)n2C)c(F)c1F [Example C36, 2-[4-[4-[2-chloro-4-[[5-(2,3-difluoro-4-methoxy-phenyl)-1-methyl-imidazole-2-carbonyl]amino]benzoyl]piperazine-1-carbonyl]-1-methyl-piperazin-1-ium-1-yl]acetic acid formate] | 1100 nM
 | COc1ccc(-c2cnc(C(=O)Nc3ccc(C(=O)N4CCN(C(=O)N5C[C@@H]6C[N+](CCCN)(CC(=O)O)C[C@@H]6C5)CC4)c(Cl)c3)n2C)c(F)c1F (stereo partly drawn) [Example C37, hydrochloride] | 340 nM
 | COc1ccc(-c2cnc(C(=O)Nc3ccc(C(=O)N4CCN(C(=O)N5CC[N+](CCCN)(CC(=O)O)CC5)CC4)c(Cl)c3)n2C)c(F)c1F [Example C38, 2-[1-(3-aminopropyl)-4-[4-[2-chloro-4-[[5-(2,3-difluoro-4-methoxy-phenyl)-1-methyl-imidazole-2-carbonyl]amino]benzoyl]piperazine-1-carbonyl]piperazin-1-ium-1-yl]acetic acid formate] | 730 nM
 | COc1ccc(-c2cnc(C(=O)Nc3ccc(C(=O)N4CCN(C(=O)C5CC[N+](CC(=O)O)(CC6CNC6)CC5)CC4)c(Cl)c3)n2C)c(Cl)c1F (stereo not drawn) [Example C40, 2-[1-(azetidin-3-ylmethyl)-4-[4-[2-chloro-4-[[5-(2-chloro-3-fluoro-4-methoxy-phenyl)-1-methyl-imidazole-2-carbonyl]amino]benzoyl]piperazine-1-carbonyl]piperidin-1-ium-1-yl]acetic acid; formate] | 540 nM
 | Cn1c(-c2ccc(OCF)c(F)c2Cl)cnc1C(=O)Nc1ccc(C(=O)N2CCN(C(=O)C3CC[N+](CC(=O)O)(CC4CNC4)CC3)CC2)c(Cl)c1 (stereo not drawn) [Example C41, 2-[1-(azetidin-3-ylmethyl)-4-[4-[2-chloro-4-[[5-[2-chloro-3-fluoro-4-(fluoromethoxy)phenyl]-1-methyl-imidazole-2-carbonyl]amino]benzoyl]piperazine-1-carbonyl]piperidin-1-ium-1-yl]acetic acid formate] | 480 nM
100 nM | Cn1c(-c2ccc(OC(F)F)c(F)c2F)cnc1C(=O)Nc1ccc(C(=O)N2CCN(C(=O)C3CC[N+](C)(CC4CNC4)CC3)CC2)c(F)c1 (stereo not drawn) [Example C42, N-[4-[4-[1-(azet-idin-3-ylmethyl)-1-methyl-piper-idin-1-ium-4-carbonyl]piper-azine-1-carbon-yl]-3-fluoro-phenyl]-5-[4-(difluorometh-oxy)-2,3-difluoro-phenyl]-1-methyl-imidazole-2-car-boxamide; 2,2,2-trifluoroacetate; 2,2,2-trifluoro-acetic acid] | 
290 nM | COc1ccc(-c2cnc(C(=O)Nc3ccc(C(=O)N4CCC(NC(=O)[C@@H]5C[C@@H](O)C[N+]5(C)C)CC4)c(Cl)c3)n2C)c(F)c1F [Example C43, N-[3-chloro-4-[4-[[(2S,4R)-4-hydroxy-1,1-dimethyl-pyrrolidin-1-ium-2-carbonyl]amino]piperidine-1-carbonyl]phenyl]-5-(2,3-difluoro-4-methoxy-phenyl)-1-methyl-imidazole-2-carboxamide;formate] | 
